Laboratory results taken from ChEMBL document CHEMBL5338769, “Discovery of Norisoboldine Analogue III11 as a Novel and Potent Aryl Hydrocarbon Receptor Agonist for the Treatment of Ulcerative Colitis” (J Med Chem, 2023).
Activity calls are given as the source filed them. The calls are words filed in the database; no cut-off is given here.

Assays:
[1] = target: T1, Aryl hydrocarbon receptor (Mus musculus, UniProt P30561); experiment: Activation of AhR transcription in C57BL/6 mouse naive T cells assessed as increase in AhRR mRNA expression at 1 to 3 uM by qRT-PCR analysis; assay type: cell-based; conditions: t cell, dose 1-3 µM
T1 sequence (P30561 whole entry): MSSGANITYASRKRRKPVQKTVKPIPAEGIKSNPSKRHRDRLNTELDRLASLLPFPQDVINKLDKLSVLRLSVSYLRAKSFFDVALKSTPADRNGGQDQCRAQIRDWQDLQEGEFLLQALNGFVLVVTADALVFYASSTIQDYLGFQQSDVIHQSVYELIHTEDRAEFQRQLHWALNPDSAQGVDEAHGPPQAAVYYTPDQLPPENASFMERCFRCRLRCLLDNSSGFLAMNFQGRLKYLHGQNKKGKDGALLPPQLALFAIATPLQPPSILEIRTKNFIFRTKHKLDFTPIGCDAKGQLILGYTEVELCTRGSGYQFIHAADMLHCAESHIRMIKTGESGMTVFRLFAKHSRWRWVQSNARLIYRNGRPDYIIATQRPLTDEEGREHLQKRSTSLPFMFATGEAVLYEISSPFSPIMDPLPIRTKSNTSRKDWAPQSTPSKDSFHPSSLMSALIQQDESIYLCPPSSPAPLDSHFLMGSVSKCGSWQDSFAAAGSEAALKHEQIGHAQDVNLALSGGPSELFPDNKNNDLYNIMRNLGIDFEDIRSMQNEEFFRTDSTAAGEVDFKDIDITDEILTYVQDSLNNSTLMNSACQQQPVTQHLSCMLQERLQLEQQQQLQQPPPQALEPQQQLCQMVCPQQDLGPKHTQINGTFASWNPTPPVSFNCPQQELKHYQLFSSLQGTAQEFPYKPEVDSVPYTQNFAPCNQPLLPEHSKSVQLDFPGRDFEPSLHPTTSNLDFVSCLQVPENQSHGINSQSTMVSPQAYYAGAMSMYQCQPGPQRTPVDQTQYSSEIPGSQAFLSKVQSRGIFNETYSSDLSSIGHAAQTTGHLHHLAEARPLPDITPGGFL

[2] = system: EL4; experiment: Cytotoxicity against mouse EL4 cells assessed as reduction of cell vaibility at 10 uM incubated for 72 hrs by MTT assay; assay type: functional, cell-based
[3] = target: T1, Aryl hydrocarbon receptor; experiment: Induction of AhR nuclear translocation in C57BL/6 mouse naive T cells at 1 to 10 uM incubated for 48 hrs by immunofluorescence based inverted microscopic analysis; conditions: t cell, dose 1-10 µM
[4] = target: T1, Aryl hydrocarbon receptor; experiment: Binding affinity to AhR in mouse EL4 cells assessed as thermal stabilization at 3 uM at 37 to 67 degreeC incubated for 24 hrs thermal shift assay based Western blot analysis; assay type: cell-based; conditions: el4, 24 h
[5] = Unbound drug concentration in rat plasma at 10.74 ug/ml of total concentration measured after 12 hrs by ultrafiltration based HPLC analysis; assay type: ADME, cell-free; conditions: dose 10.74 µg/ml
[6] = Protein binding in rat plasma at 10.74 ug/ml of total concentration measured after 12 hrs by ultrafiltration based HPLC analysis; assay type: ADME, cell-free; conditions: at 10.74 µg/mL, read-out: PPB (converted)
[7] = Protein binding in rat plasma at 48.02 ug/ml of total concentration measured after 12 hrs by ultrafiltration based HPLC analysis; assay type: ADME, cell-free; conditions: at 48.02 µg/mL, read-out: PPB (converted)
[8] = system: Regulatory T cell; experiment: Induction of cell differentiation in C57BL/6 mouse naive regulatory T cells at 1 uM incubated for 72 hrs by flow cytometric analysis; assay type: functional, cell-based
[9] = Induction of cell differentiation in C57BL/6 mouse naive regulatory T cells assessed as increase in cell frequency at 3 uM incubated for 72 hrs by flow cytometric analysis (reference value: 24.9%); assay type: functional
[10] = Induction of cell differentiation in C57BL/6 mouse naive regulatory T cells assessed as increase in […] mRNA level by measuring fold change at 3 uM incubated for 72 hrs by qRT-PCR analysis; assay type: functional
[11] = Induction of cell differentiation in C57BL/6 mouse naive regulatory T cells assessed as increase in IL-10 mRNA level by measuring fold change at 3 uM incubated for 72 hrs by qRT-PCR analysis; assay type: functional
[12] = AUC(0 to infinity) in Sprague-Dawley rat at 3 mg/kg, iv measured upto 1440 min by LC-MS/MS analysis; assay type: ADME, organism-based; set-up: dose 3 mg/kg, time < 1440 min, route iv; conditions: in vivo
[13] = AUC(0 to infinity) in Sprague-Dawley rat at 30 mg/kg, po measured upto 1440 min by LC-MS/MS analysis; assay type: ADME, organism-based; set-up: time < 1440 min, dose 30 mg/kg, route po; conditions: in vivo
[14] = MRT in Sprague-Dawley rat at 30 mg/kg, po measured upto 1440 min by LC-MS/MS analysis; assay type: ADME, organism-based; conditions: in vivo
[15] = system: Mus musculus; experiment: Anti-colitis activity against DSS-induced ulcerative colitis C57BL/6 mouse model assessed as decrease in disease activity index score at 20 mg/kg, po administered once a day for 10 days; assay type: functional, organism-based; conditions: time 10.0 day
[16] = system: Mus musculus; experiment: Anti-colitis activity against DSS-induced ulcerative colitis C57BL/6 mouse model assessed as recovery of colon length at 20 mg/kg, po administered once a day for 10 days; assay type: functional, organism-based; conditions: time 10.0 day
[17] = system: Mus musculus; experiment: Anti-colitis activity against DSS-induced ulcerative colitis C57BL/6 mouse model assessed as decrease in colon MPO activity at 10 to 20 mg/kg, po administered once a day for 10 days; assay type: functional, organism-based; conditions: dose 10-20 mg/kg, time 10.0 day
[18] = system: Mus musculus; experiment: Anti-colitis activity against DSS-induced ulcerative colitis C57BL/6 mouse model assessed as amelioration of mucosal architecture score by measuring ulceration in colon at 10 to 20 mg/kg, po administered once a day for 10 days by H&E staining based histopathological analysis; assay type: functional, organism-based; conditions: dose 10-20 mg/kg, time 10.0 day
[19] = system: Mus musculus; experiment: Anti-colitis activity against DSS-induced ulcerative colitis C57BL/6 mouse model assessed as amelioration of epithelial change score by measuring cryptitis in colon at 10 to 20 mg/kg, po administered once a day for 10 days by H&E staining based histopathological analysis; assay type: functional, organism-based; conditions: dose 10-20 mg/kg, time 10.0 day
[20] = system: Mus musculus; experiment: Anti-colitis activity against DSS-induced ulcerative colitis C57BL/6 mouse model assessed as amelioration of inflammation severity in colon at 10 to 20 mg/kg, po administered once a day for 10 days by H&E staining based histopathological analysis; assay type: functional, organism-based; conditions: dose 10-20 mg/kg, time 10.0 day
[21] = Induction of cell differentiation in C57BL/6 mouse naive regulatory T cells assessed as increase in cell frequency at 1 uM incubated for 72 hrs by flow cytometric analysis (reference value: 24.9%); assay type: functional
[22] = system: Mus musculus; experiment: Anti-colitis activity in DSS-induced ulcerative colitis C57BL/6 mouse model assessed as increase in CD4+CD25+Foxp3+ Treg cell ratio in mesenteric lymph nodes at 20 mg/kg, po administered once a day for 10 days by flow cytometric analysis (reference value: 4.5 %); assay type: functional; conditions: time 10 day
[23] = system: Mus musculus; experiment: Anti-colitis activity in DSS-induced ulcerative colitis C57BL/6 mouse model assessed as CD4+CD25+Foxp3+ Treg cell percentage in spleen at 20 mg/kg, po administered once a day for 10 days by flow cytometric analysis (reference value: 3.3%); assay type: functional; conditions: time 10 day
[24] = system: Mus musculus; experiment: Anti-colitis activity in DSS-induced ulcerative colitis C57BL/6 mouse model assessed as decrease in IL-17 expression at 20 mg/kg, po administered once a day for 10 days by qRT-PCR analysis; assay type: functional; set-up: scale not given: the % may be the effect or the level left; conditions: time 10 day

COc1cc2c3c(c1)-c1ccc(O)cc1CC3NCC2 (centres undefined)
Activity [1]: Active | Activity [2]: inactive | Activity [3]: Active | Activity [4]: Active | Cp(f) [5]: 1440 ng/mL | fraction unbound at 12 h, 10.74 ug/ml [6]: 0.134 | fraction unbound at 12 h, 48.02 ug/ml [7]: 0.139 | Activity [8]: Active | Activity [9]: 35.4% | fold change (FC) [10]: 1.4 | fold change (FC) [11]: 2.4 | AUC(0-inf) [12]: 974 ng·h/mL | AUC(0-inf) [13]: 8520 ng·h/mL | MRT [14]: 7.27 h | Activity [15]: Active | Activity [16]: Active | Activity [17]: Active | Activity [18]: Active | Activity [19]: Active | Activity [20]: Active | Activity [21]: 29.9% | Activity [22]: 8.5% | Activity [23]: 4% | Activity [24]: 86.96%
